Test results: patent publication US20160038519A1, “ADMINISTRATION OF KARENITECIN FOR THE TREATMENT OF ADVANCED OVARIAN CANCER, INCLUDING CHEMOTHERAPY-RESISTANT AND/OR THE MUCINOUS ADENOCARCINOMA SUB-TYPES” (BioNumerik Pharmaceuticals, Inc., priority 2014, published 2016)
Converted amounts (≈) assume the structure as drawn. Like-named read-outs stand apart in the source and are kept apart here.

Key:
[1] = test system: JHOM2B Cell Line; experiment: SRB cytotoxicity assay, JHOM2B; assay type: cell-based, human; settings: Homo sapiens
Method: (§1) In vitro studies were conducted in human mucinous ovarian cancer cell lines including JHOM2B, OMC3, and COV644. In one series of experiments, the dose response curves for BNP1350 (also known as Karenitecin), SN-38 (Irinotecan), and Topotecan were obtained and IC50 values were determined. In a second series of experiments, the effect of BNP7787 (2,2′-dithio-bis-ethane sulfonate; Tavocept) on BNP1350-induced cytotoxicity at selected BNP1350 concentrations was examined.
(§2) The JHOM2B and OMC3 cell lines were purchased from Riken Cell Bank (Japan). The COV644 cell line was purchased from SigmaAldrich. Cells were maintained as monolayered cultures in T-75 flasks and then seeded to microtiter plate wells for experiments. Population doubling-times for these three cell lines were long (i.e., exceeding 40 hours, and for some of the cell lines approaching 96 hours); therefore, the Applicants conducted initial pilot experiments and determined optimal seeding density to obtain A570 values in untreated controls that would fall within the linear range of the SRB assay after seven (7) total days of cell growth. JHOM2B cells were cultured in DMEM:F12 (1:1)+0.1 mM non-essential amino acids (NEAA)+10% FBS and were seeded at 6,000 cells per well. OMC3 cells were cultured in HamF12+10% FBS and were seeded at 8,000 cells per well. COV644 cells were cultured in DMEM+2 mM glutamine+10% FBS and were seeded at 6,000 cells per well.
(§3) The cells were manipulated in a Microzone laminar flow hood traditionally used for maintaining aseptic environments around automated instrumentation such as microplate robots, and the like. Cells were grown and maintained at 37° C. in a humidified atmosphere containing 5% CO2 in a water jacketed cell culture incubator (Forma Scientific). Cells were counted using a ViCell counter (Beckman-Coulter). An automated plate washer/stacker (ELx405/BioStak from BioTek Instruments) and a microplate reader (SpectraMax Plus from Molecular Devices) were used for conducting the SRB assay and determining A570 values for wells in the plates and the percentage of control values. Prior to SRB assays, cell viability was monitored by evaluation of microtiter plate wells. Dead cells detach and float while living cells remain attached to the bottom of the cell well.
(§4) SN-38 (Irinotecan; Sigma H0165, lot MKBQ4981) and Topotecan (Sigma T2705, lot 052M4728V) were purchased from SigmaAldrich. BNP1350 (lot KN-C192-135) and BNP7787 (lot 205001) were synthesized at BioNumerik Pharmaceuticals, Inc. (San Antonio, Tex.). BNP1350, SN38, and Topotecan were prepared as 2.5, 2.5, and 25 mM stocks in DMSO (ATCC, cell culture grade).
(§5) The sulforhodamine B (SRB) cytotoxicity assay was used to assess cell survival. Briefly, after the medium was decanted from individual plate wells, trichloroacetic acid (100 μL of 10.0 percent solution) was added to each well, and the plates were incubated at 4° C. for 1 hour. The plates were washed five times with water using an automated microplate washer (Model ELx405, Bio-Tek Instruments), SRB solution (100 μL of 0.4% SRB dissolved in 1.0 percent acetic acid) was added, and plates remained at room temperature for 15 minutes. The plates were then washed five times using acetic acid (1.0 percent), air dried, and bound dye was solubilized in Tris base (150 μL, 10 mM). Plates were agitated (gently) for 5 minutes and the absorbance values of the SRB dye-protein adduct at 570 nanometers (A570) were determined using an automated microtiter plate reader (SpectraMax Plus, Molecular Devices). IC50 values were extrapolated from dose response curves of the data using OriginLab Software.

[2] = test system: OMC3 Cell Line; experiment: SRB cytotoxicity assay, OMC3; assay type: cell-based, human; settings: Homo sapiens
Method: as §1, §2, §3, §4, §5

[3] = test system: COV644 Cell Line; experiment: SRB cytotoxicity assay, COV644; assay type: cell-based, human
Method: as §1, §2, §3, §4, §5
(§6) The 1050 values exceeded the solubility in medium for each compound—the limit of solubility in cell culture medium for the compounds were as follows: 2 micromolar for BNP1350 and SN38, and 20 micromolar for Topotecan. Cells were treated for periods of 2.5 hours or 6 hours and, in each case, the […] values were not reached. Longer treatments were not performed.

[4] = Limit of solubility in cell culture medium; assay type: physicochemical; settings: aqueous buffer
Method: as §6

[5] = test system: stage III/IV advanced epithelial ovarian cancer resistant or refractory to platinum- and taxane-based regimens
Method: Such Phase III clinical trial is sometimes referred to herein as the “Karenitecin Phase III Trial”.
The Primary Endpoint of the disclosed Karenitecin Phase III Trial was Progression Free Survival (“PFS”); which was defined as the time period from the date of randomization to the date of first radiographically-documented Progressive Disease (“PD”) or date of death due to any cause, taking the event date that occurs first. The date of PD was determined by radiographical objective disease (RECIST) measurement. The Secondary Endpoints of the disclosed Karenitecin Phase III Trial included: (i) Overall Survival (hereinafter “OS”), defined as the time from the date of randomization to the date of death due to any cause; (ii) Incidence of anemia, defined as the proportion of subjects who experience ≧grade 3 anemia based on National Cancer Institute Common Terminology Criteria for Adverse Events (NCI-CTCAE) criteria at any time post-baseline after receiving study treatment; (iii) Incidence of neutropenia (including febrile neutropenia), defined as the proportion of subjects who experience ≧grade 3 neutropenia based on NCI-CTCAE criteria at any time post-baseline after receiving study treatment; and (iv) Incidence of thrombocytopenia, defined as the proportion of subjects who experience ≧grade 3 thrombocytopenia based on NCI-CTCAE criteria at any time post-baseline after receiving study treatment.
Approximately 80 study centers participated in this clinical study. The primary endpoint was Progression Free Survival (PFS); defined as the time period from the date of randomization to the date of first radiographically documented progressive disease or disease progression (“PD”) or date of death due to any cause, taking the event date that occurs first.
The primary endpoint was Progression Free Survival (PFS); defined as the time period from the date of randomization to the date of first radiographically documented progressive disease (PD) or date of death due to any cause, taking the event date that occurs first. The date of PD was determined by radiographically objective disease (RECIST) measurement.
• Overall Survival (OS), defined as the time from the date of randomization to the date of death due to any cause. • Incidence of anemia, defined as the proportion of subjects who experience ≧grade 3 anemia based on National Cancer Institute Common Terminology Criteria for Adverse Events (NCI-CTCAE) criteria at any time post-baseline after receiving study treatment. • Incidence of neutropenia (including febrile neutropenia), defined as the proportion of subjects who experience ≧grade 3 neutropenia based on NCI-CTCAE criteria at any time post-baseline after receiving study treatment. • Incidence of thrombocytopenia, defined as the proportion of subjects who experience ≧grade 3 thrombocytopenia based on NCI-CTCAE criteria at any time post-baseline after receiving study treatment.
During this period, subjects received either Karenitecin (1.0 mg/m^2/day administered as a 60-minute intravenous infusion) or Topotecan (1.5 mg/m^2/day administered as a 30-minute intravenous infusion) daily for 5 consecutive days, every 21 days (one treatment cycle=21 days).

[6] = test system: MDR-expressing sublines; settings: cited from earlier work; for Resistance of MDR-expressing sublines relative to parental wild-type cells: comparison studies; for Change in sensitivity typically described for classic MDR substrates: same experiments
[7] = test system: resistant subline containing less than 4% of the topoisomerase I activity; settings: subline with less than 4% of topoisomerase I activity; cited from earlier work
[8] = test system: platinum-refractory epithelial ovarian cancer; settings: cited from earlier work
[9] = 2 hour drug exposure, average of Test 1 and Test 2, read-out: IC50, Average
[10] = 2 hour drug exposure, read-out: IC50, Test 1 (2 replicate plates)
[11] = 2 hour drug exposure, read-out: IC50, Test 2 (3 replicate plates)
[12] = Mucinous adenocarcinoma subtype

## CC[C@@]1(O)C(=O)OCc2c1cc1n(c2=O)Cc2cc3c(CN(C)C)c(O)ccc3nc2-1 [Topotecan]
[1]; [9]
  IC50: 5.17 µM
[1]; [10]
  IC50: 4.75 ± 0.25 µM
[1]; [11]
  IC50: 5.59 ± 0.28 µM
[1]; read-out: IC50 values
  IC50: 5.17 µM
[2]; [9]
  IC50: 3.94 µM
[2]; [10]
  IC50: 3.12 ± 0.18 µM
[2]; [11]
  IC50: 4.76 ± 0.25 µM
[2]; read-out: IC50 values
  IC50: 3.94 µM
[3]; Homo sapiens, 2, 5, and 6 hour drug exposures, did not reach 50% of Control, read-out: IC50, Test 1 (2 replicate plates)
  IC50: > 20 µM
[3]; Homo sapiens, 2, 5, and 6 hour drug exposures, did not reach 50% of Control, read-out: IC50, Test 2 (2 to 3 replicate plates)
  IC50: > 20 µM
[3]; Homo sapiens, 2, 5, and 6 hour drug exposures, read-out: IC50, Average
  IC50: > 20 µM
[3]; Homo sapiens, read-out: IC50 values
  IC50: > 20 µM
[4]
  solubility: 20 µM (≈ 8.43 µg/mL)
[5]; [12]
  Median PFS: 9.1 weeks
  Overall survival (OS), third quartile: 19.4 months
[5]; overall trial population, IRC-determined
  Median PFS: 17.8 weeks
[5]; refractory or resistant and/or mucinous subpopulation
  Median PFS: 18.7 weeks
[6]
  Resistance of MDR-expressing sublines relative to parental wild-type cells: nine-fold more resistant

## CC[C@@]1(O)C(=O)OCc2c1cc1n(c2=O)Cc2cc3ccccc3nc2-1 [camptothecin]
[6]
  Resistance of MDR-expressing sublines relative to parental wild-type cells: No increase in resistance
[7]
  Decrease in sensitivity of resistant subline compared with wild-type parental cells: 1000 fold

## N.N.O=C([O-])C1(C(=O)[O-])CCC1.[Pt+2] [carboplatin]
[8]; 6 subjects
  Stable disease: 18%
[8]; 26 subjects (7/26)
  Response rate, subgroup with platinum-free interval of 12 months: 27%
[8]; 33 subjects, single-agent carboplatin after taxane failure
  Overall response rate to platinum reinduction: 21%
[8]; in vivo
  Median duration of response: ≥ 7 months

## COc1cccc2c1C(=O)c1c(O)c3c(c(O)c1C2=O)C[C@@](O)(C(=O)CO)C[C@@H]3O[C@H]1C[C@H](N)[C@H](O)[C@H](C)O1 [doxorubicin]
[6]
  Change in sensitivity typically described for classic MDR substrates: 200 fold

## COc1cc([C@@H]2c3cc4c(cc3[C@@H](O[C@@H]3O[C@@H]5CO[C@@H](C)O[C@H]5[C@H](O)[C@H]3O)[C@H]3COC(=O)[C@H]23)OCO4)cc(OC)c1O [etoposide]
[6]
  Change in sensitivity typically described for classic MDR substrates: 200 fold
